# From patent US5480969A, “Antagonists of LHRH” (The Administrators of the Tulane Educational Fund, priority 1992, dated 1996)
# Values joined by “and” are separate entries in the source; they are usually repeats but may differ in a detail not shown here. Equal entries are not always repeated. Where two headings read alike, the source gives them in different places. Starred links: 1 amine or outer side, 2 acyl side, 3 side chain; linkers in the order of their positions; H or OH if unused. Non-standard residues stand in square brackets, D forms with d. Residues, ends and D or L forms follow the SMILES beside them. *: point of attachment. dAla(cis-4-NHCOPyz-cHex) = N[C@H](C[C@H]1CC[C@@H](NC(=O)c2cnccn2)CC1)C(=O)O; X2 = O=C(N[C@H]1CC[C@@H](C[C@H](N[*:1])C(=O)[*:2])CC1)c1cnccn1; d(hArg(Et2)) = CCN=C(NCC)NCCCC[C@@H](N)C(=O)O; X1 = O=C([C@@H](Cc1cnc2ccccc2c1)N[*:1])[*:2]; Ala(2-pyrazinyl) = N[C@@H](Cc1cnccn1)C(=O)O; hArg(Et2) = CCN=C(NCC)NCCCC[C@H](N)C(=O)O; dPhe(4-Cl) = N[C@H](Cc1ccc(Cl)cc1)C(=O)O; X3 = O=C([C@@H](Cc1cnccn1)N[*:1])[*:2]; d2Nal = N[C@H](Cc1ccc2ccccc2c1)C(=O)O; Lys(iPr) = CC(C)NCCCC[C@H](N)C(=O)O; d3Pal = N[C@H](Cc1cccnc1)C(=O)O; Cit = NC(=O)NCCC[C@H](N)C(=O)O; Picolinoyl = O=C(c1ccccn1)*; Abu = CC[C@H](N)C(=O)O
# What was measured:
# [1] = system: rat mast cells; assay: In vitro histamine release in rat mast cells; type: cell-based
# Description: (§1) AOA in rats was determined as reported [Humphries et al.]. The wheal area/10 μg of analog was calculated as described [Ljungqvist et al. 1987]. The histamine release was assayed in rat mast cells as reported [Hook et al., Karten et al. 1987]. […] The biological data are in Table III.
# (§2) The AOA was determined in rats as reported [Humphries et al.]. […] The data from the determinations of AOA and ED50 are in Table IV.
# (§3) The AOA was determined in rats, as reported (13).
# [2] = Wheal area per 10 μg of analog; type: in vivo
# Description: as §1
# [3] = system: rat mast cells; conditions: cited from earlier work; for Histamine release ED50: Table V
# [4] = system: rats; conditions: cited from earlier work; for AOA %/μg 0.25: 0.25 μg; for dose giving AOA of 100% (AOA100): background, literature antagonists
# [5] = system: rats; assay: Antiovulatory activity (AOA) in rats; type: in vivo, rat; conditions: Table IV / Example 2
# Description: as §1, §2, §3
# The very large number of bioassays which are required for a very large number of samples necessitate a minimal number of animals for the initial bioassays. In these initial bioassays, relatively small differences in potencies, expressed as percent AOA, may be "semi-quantitative," but even such small initial differences may reveal valid trends of potency for structural interpretation and new designs.
# Bioassays are repeated as many times as required for quantitative data. […] The initial bioassay of Antide showing 63% at 0.125 μg and 89% at 0.25 μg was on the first sample of […]. The following three bioassays were on a resynthesized sample. However, both samples fulfilled all criteria for purity.
# [6] = system: testosterone secretion; conditions: male monkeys; single dose; cited from earlier work
# [7] = Table III parent analogs from literature; cited from earlier work
# [8] = system: gonadotropin secretion; conditions: overectomized monkeys; single or multiple doses; cited from earlier work
compound,measurement,setting,value
CC(=O)N[C@H](Cc1ccc2ccccc2c1)C(=O)N[C@H](Cc1ccc(Cl)cc1)C(=O)N[C@H](Cc1cccnc1)C(=O)N[C@@H](CO)C(=O)N[C@@H](CCCCNC(=O)c1ccccn1)C(=O)N[C@H](CCCCNC(=O)[C@H](N)CO)C(=O)N[C@@H](CC(C)C)C(=O)N[C@@H](CCCCNC(C)C)C(=O)N1CCC[C@H]1C(=O)N[C@H](C)C(N)=O (Ac-[d2Nal][dPhe(4-Cl)][d3Pal]SK(Picolinoyl)[dK](dS)L[Lys(iPr)]P[dA]-NH2),ED50 for hist. release,[1],18 µg/mL
CC(=O)N[C@H](Cc1ccc2ccccc2c1)C(=O)N[C@H](Cc1ccc(Cl)cc1)C(=O)N[C@H](Cc1cccnc1)C(=O)N[C@@H](CO)C(=O)N[C@@H](C[C@H]1CC[C@@H](NC(=O)c2cnccn2)CC1)C(=O)N[C@H](Cc1cnccn1)C(=O)N[C@@H](CC(C)C)C(=O)N[C@@H](CCCCNC(C)C)C(=O)N1CCC[C@H]1C(=O)N[C@H](C)C(N)=O (Ac-[d2Nal][dPhe(4-Cl)][d3Pal]S[X2][X3]L[Lys(iPr)]P[dA]-NH2),ED50 for hist. release,[1],88 ± 6.4 µg/mL
"CC(=O)N[C@H](Cc1cnc2ccccc2c1)C(=O)N[C@H](Cc1ccc(Cl)cc1)C(=O)N[C@H](Cc1cccnc1)C(=O)N[C@@H](CO)C(=O)N[C@@H](CCCNC(N)=O)C(=O)N[C@H](CCCCNC(=O)c1ccccn1)C(=O)N[C@@H](CC(C)C)C(=O)N[C@@H](CCCNC(=N)N)C(=O)N1CCC[C@H]1C(=O)N[C@H](C)C(N)=O [Analog 6 (Table VI), [Cit^5]-Argtide] (Ac-[X1][dPhe(4-Cl)][d3Pal]S[Cit][dK](Picolinoyl)LRP[dA]-NH2)",ED50 histamine release,[1],94 µg/mL
"CC(=O)N[C@H](Cc1ccc2ccccc2c1)C(=O)N[C@H](Cc1ccc(Cl)cc1)C(=O)N[C@H](Cc1cccnc1)C(=O)N[C@@H](CO)C(=O)N[C@@H](CCCCNC(=O)c1ccccn1)C(=O)N[C@H](CCCCNC(=O)[C@H](N)CO)C(=O)N[C@@H](CC(C)C)C(=O)N[C@@H](CCCCNC(C)C)C(=O)N1CCC[C@H]1C(=O)N[C@H](C)C(N)=O [Analog 7 (Table III), [N-Ac-D-Nal^1,D-pClPhe^2,D-3-Pal^3,PicLys^5,D-(DSer)Lys.sup .6,ILys^8,D-Ala^10]-LHRH] (Ac-[d2Nal][dPhe(4-Cl)][d3Pal]SK(Picolinoyl)[dK](dS)L[Lys(iPr)]P[dA]-NH2)",Wheal area,"[2]; Table III / Example 1, listed as 7",103.9 ± 5.2 mm^2 /10 μg and 103.9 mm^2 /10 μg
"CC(=O)N[C@H](Cc1cnc2ccccc2c1)C(=O)N[C@H](Cc1ccc(Cl)cc1)C(=O)N[C@H](Cc1cccnc1)C(=O)N[C@@H](CO)C(=O)N[C@@H](C[C@H]1CC[C@@H](NC(=O)c2cnccn2)CC1)C(=O)N[C@H](CCCCNC(=O)c1ccccn1)C(=O)N[C@@H](CC(C)C)C(=O)N[C@@H](CCCCNC(C)C)C(=O)N1CCC[C@H]1C(=O)N[C@H](C)C(N)=O [Analog 11 (Table III), [N-Ac-D-3-Qal^1, D-pClPhe^2, D-3-Pal^3, c-PzACAla^5, D-PicLys^6, ILys^8, D-Ala^10] LHRH] (Ac-[X1][dPhe(4-Cl)][d3Pal]S[X2][dK](Picolinoyl)L[Lys(iPr)]P[dA]-NH2)",ED50 for hist. release,[1],171 ± 17 µg/mL
"CCN=C(NCC)NCCCC[C@H](NC(=O)[C@H](CC(C)C)NC(=O)[C@@H](CCCCNC(=NCC)NCC)NC(=O)[C@H](Cc1ccc(O)cc1)NC(=O)[C@H](CO)NC(=O)[C@@H](Cc1cccnc1)NC(=O)[C@@H](Cc1ccc(Cl)cc1)NC(=O)[C@@H](Cc1ccc2ccccc2c1)NC(C)=O)C(=O)N1CCC[C@H]1C(=O)N[C@H](C)C(N)=O [RS-26306, [N-Ac-D-2-Nal^1, D-pClPhe^2, D-3-Pal^3, D-hArg(Et2)^6, hArg(Et)2^8, D-Ala^10] LHRH] (Ac-[d2Nal][dPhe(4-Cl)][d3Pal]SY[d(hArg(Et2))]L[hArg(Et2)]P[dA]-NH2)",Histamine release ED50,[3],13 µg/mL
CC(=O)N[C@H](Cc1ccc2ccccc2c1)C(=O)N[C@H](Cc1ccc(Cl)cc1)C(=O)N[C@H](Cc1cccnc1)C(=O)N[C@@H](CO)C(=O)N[C@@H](Cc1cnccn1)C(=O)N[C@H](C[C@H]1CC[C@@H](NC(=O)c2cnccn2)CC1)C(=O)N[C@@H](CC(C)C)C(=O)N[C@@H](CCCCNC(C)C)C(=O)N1CCC[C@H]1C(=O)N[C@H](C)C(N)=O [compound 18] (Ac-[d2Nal][dPhe(4-Cl)][d3Pal]S[Ala(2-pyrazinyl)][dAla(cis-4-NHCOPyz-cHex)]L[Lys(iPr)]P[dA]-NH2),Wheal area,[2]; Table III / Example 1,101.6 ± 2.2 mm^2 /10 μg
same,ED50 for hist. release,"[1]; concentration releasing 50% of total releasable histamine, Table III / Example 1",28 ± 4.7 µg/mL
CC[C@H](NC(=O)[C@@H](CCCCNC(=O)c1ccccn1)NC(=O)[C@H](CCCCNC(=O)c1ccccn1)NC(=O)[C@H](CO)NC(=O)[C@@H](Cc1cccnc1)NC(=O)[C@@H](Cc1ccc(Cl)cc1)NC(=O)[C@@H](Cc1cnc2ccccc2c1)NC(C)=O)C(=O)N[C@@H](CCCCNC(C)C)C(=O)N1CCC[C@H]1C(=O)N[C@H](C)C(N)=O [compound 20] (Ac-[X1][dPhe(4-Cl)][d3Pal]SK(Picolinoyl)[dK](Picolinoyl)[Abu][Lys(iPr)]P[dA]-NH2),Wheal area,[2]; Table III / Example 1,103.9 ± 3.7 mm^2 /10 μg
CC(=O)N[C@H](Cc1ccc2ccccc2c1)C(=O)N[C@H](Cc1ccc(Cl)cc1)C(=O)N[C@H](Cc1cccnc1)C(=O)N[C@@H](CO)C(=O)N[C@@H](CCCCNC(=O)c1ccccn1)C(=O)NC1CCN(C(CC(C)C)C(=O)N[C@@H](CCCCNC(C)C)C(=O)N2CCC[C@H]2C(=O)N[C@H](C)C(N)=O)C1=O (stereo partly shown) [compound 21],Wheal area,[2]; Table III / Example 1,99.5 ± 4.5 mm^2 /10 μg
CC(=O)N[C@H](Cc1cnc2ccccc2c1)C(=O)N[C@H](Cc1ccc(Cl)cc1)C(=O)N[C@H](Cc1cccnc1)C(=O)N[C@@H](CO)C(=O)N[C@@H](CCCCNC(=O)c1ccccn1)C(=O)NC1CCN(C(CC(C)C)C(=O)N[C@@H](CCCCNC(C)C)C(=O)N2CCC[C@H]2C(=O)N[C@H](C)C(N)=O)C1=O (stereo partly shown) [compound 22],Wheal area,[2]; Table III / Example 1,89.5 ± 5.5 mm^2 /10 μg
"N-Ac-D-3-Qal, D-pClPhe, D-3-Pal, Ser, c-PzACAla, D-PicLys, Leu, Arg, Pro, D-AlaNH2 [Argtide]",Histamine release ED50,[3],31 µg/mL
same,ED50 histamine release,"[3]; Table VI / Example 3 text, from Janecka et al.",31 µg/mL
same,"column 0.125 (AOA, head not given)","[4]; Table V comparison of leading antagonists, column 0.125",63
same,AOA %/μg 0.25,"[4]; rats, Table VI / Example 3 text, from Janecka et al.",88%
same,ED50 histamine release,[1],30.8 ± 0.59 µg/mL
same,% AOA/μg dosage 0.125,[5]; 0.125 μg,63%
same,% AOA/μg dosage 0.25,[5]; 0.25 μg,89%
"[D-Phe^2, Pro^3, DTrp^6 ] LHRH",dose giving AOA of 100% (AOA100),[4],750 μg/rat
"[N-Ac-D-2-Nal^1 ; D-pClPhe^2, D-Trp^3, D-Arg^6, D-Ala^10 ] LHRH",dose giving AOA of 100% (AOA100),[4],ca. 0.5 μg/rat
"[N-Ac-D-2-Nal^1, D-pClPhe^2, D-3-Pal^3, Arg^5, D-Glu(AA)^6, D-Ala^10 ] LHRH [Nal-Glu]","column 1.5 (AOA, head not given)","[4]; Table V, column 1.5",100
"[N-Ac-D-2-Nal^1, D-pClPhe^2, D-3-Pal^3, D-Arg^6, Trp^7, D-Ala^10 ] LHRH",dose giving AOA of 100% (AOA100),[4],ca. 0.5 μg/rat
"[N-Ac-D-2-Nal^1, D-pClPhe^2, D-3-Pal^3, NicLys^5, D-NicLys^6, Ilys^8, D-Ala^10 ] LHRH [Antide]",suppression of testosterone secretion,[6],long-term suppression
same,ED50 for hist. release,[3]; Table III parent analogs from literature,300 µg/mL
same,Histamine release ED50,[3],> 300 µg/mL
same,ED50 for histamine release,[3]; background,300 µg/mL
same,histamine release (in words),[3]; background,negligible
same,Wheal area,[7],132.7 mm^2 /10 μg
same,"column 1.0 (AOA, head not given)","[4]; Table V, column 1.0",100
same,dose giving AOA of 100% (AOA100),[4],1 μg/rat
same,AOA %/μg 0.25,"[4]; rats, Table III parent analogs from literature",inactive
same,AOA %/μg 0.5,"[4]; rats, 0.5 μg, Table III parent analogs from literature",36%
same,inhibition of gonadotropin secretion,[8],Prolonged duration of inhibition
"[N-Ac-D-2-Nal^1, DpClPhe^2, D-Trp^3, D-Cit^6, D-Ala^10 ] LHRH",dose giving AOA of 100% (AOA100),[4],3 μg/rat
